The values that follow come from patent US20120121692A1, “COMPOUNDS AND COMPOSITIONS COMPRISING CDK INHIBITORS AND METHODS FOR TREATING CANCER” (SHANDONG UNIVERSITY, priority 2009, published 2012).

Where two headings read alike, the source gives them in different places.

One data set deals with HCT116 cells. The experiment in a line: MTT cytotoxicity screening, human colon cancer cell line HCT116. In kind it is cell-based. The settings on record: Homo sapiens. The text has this: Human colon cancer cell line HCT116 can be used for the preliminary cytotoxicity screening of the disclosed compounds as disclosed by Mosmann, T., “Rapid colorimetric assay for cellular growth and survival: application to proliferation and cytotoxicity assays.” J. Immunol. Methods, (1983) 65(1-2): p. 55-63 referred to herein further as the “MTT test” which is incorporated herein by reference in its entirety.
The disclosure of Mosmann recites the following. “MTT 93-(4,5-dimethylthirazol-2-yl)-2,5-diphenyl tetrazolium bromide; Sigman catalog no. M2128) was dissolved in PBS at 5 mg/ml and filtered to sterilize and remove a small amount of insoluble residue present in some batches of MTT. At the times indicated below, stock MTT solution (10 ml per 100 ml) was added to all wells of an assay, and plates were incubated at 37° C. for 4 h. Acid-siopropanol (100 ml of 0.04 N HCl in isopropanol) was added to all wells and mixed thoroughly to dissolve the dark blue crystals. After a few minutes at room temperature to ensure that all crystals were dissolved, the plates were read o a Dynatech MR580Microelisa reader, using a test wavelength of 570 nm, a reference wavelength of 630 nm, and a calibration setting of 1.99 (or 1.0 if the samples were strongly colored). Plates were normally read within 1 h of adding the isopropanol.
“Our final procedure was to add 0.01 ml MTT (5 mg/ml in phosphate-buffered saline) to 0.1 ml cells in growth medium. After 4 h at 37° C. for MTT cleavage, the formazan product was solublilized by the addition of 0.1 ml 0.04 N HCl in isopropanol. Optical density was measured on a Dynatech MR 580 plate reader, using a reference wavelength of 630 nm and a test wavelength of 570 nm.” 3-(4,5-Dimethylthiazol-2-yl)-2,5-diphenyltetrazolium bromide, a tetrazole, can pass through cellular membrane to enter into cells. This tetrazole may be reduced to the purple formazan in the mitochondria of living cells, which can diffuse out to form crystals. This crystal can be dissolved in the dimethyl sulfoxide to form a colored solution. The absorbance of this colored solution can be quantified by measuring at certain wavelength (490 nm) using a spectrophotometer. The quantity of the formazan crystal is proportional to the number of living cells.
As used herein, cells were cultured in McCoy's 5A medium supplemented with 10% heat-inactivated Fetal Bovine Serum (FBS) and 5% Penicillin/Streptomycin solution. McCoy's 5A, 1× (Iwakata & Grace modified) medium with L-Glutamine, DPBS, 1× w/o Ca and Mg, Penicillin/Streptomycin solution, Trypsin EDTA, 1× and PBS, 1× w/o Ca and Mg were purchased from Mediatech, Inc. (USA). FBS was purchased from Hyclone (USA).
The cytotoxicity of the compounds was estimated using the MTT assay. A 96-well plate was seeded with 100 μl medium containing HCT116 cells in suspension at a density of 2.5×10^4 cells/ml. After 24 hours of incubation, the cells were treated with the compounds, which were dissolved in DMSO (dimethyl sulfoxide) as stock solutions and diluted to final concentrations of 100 μM, 50 μM, 25 μM, 12.5 μM, 6.25 μM & 1 μM (for compounds tested in the micromolar concentrations) and 10 μM, 1 μM, 500 nM, 250 nM, 125 nM & 62.5 nM (for compounds tested in the nanomolar concentration range) using medium containing 0.1% DMSO. The final concentration of DMSO in the culture medium was maintained at 0.1%-0.001% (v/v). After 48 hrs incubation in the presence of test compounds, the spent medium was removed and the wells were washed twice with 100 μL of PBS solution. 100 μL of fresh medium and 10 μL of MTT (5 mg/ml in PBS) was added to the wells and incubated at 37° C. in dark for 4 hrs. The formazan product was dissolved by adding 100 μL of 100% DMSO after removing the medium from each well and was stabilized by adding 12.5 μL of Sorensen's glycine buffer to each well. […]

The mark [1] stands for this setting: HCT-116, 48 hrs incubation, absorbance 490 nm, primary screening, read-out: IC50.

One may read the IC50 as the concentration needed to halve the response being measured. A word on the melting point: it is the temperature, or range, at which the solid turns liquid. Compound `COc1cc(OC)c(C2=CCN(C)CC2)c(O)c1C(=O)/C=C/c1ccc(N(C)C)cc1` [Compound A14, (E)-3-(4-dimethylaminophenyl)-1-(2-hydroxy-4,6-dimethoxy-3-(1-methyl-1,2,3,6-tetrahydropyridine-4-yl)phenyl)-2-propylene-1-one] gave a melting point of 176 to 177 °C. The IC50 in the data set on HCT116 cells (setting [1]) is 30.5 µM.

With `COc1cc(OC)c(C2=CCN(C)CC2)c(O)c1C(=O)/C=C/c1ccc(C#N)cc1` [Compound A15, (E)-3-(4-cyanophenyl)-1-(2-hydroxy-4,6-dimethoxy-3-(1-methyl-1,2,3,6-tetrahydropyridine-4-yl)phenyl)-2-propylene-1-one], the melting point lay within 125 to 126 °C. For the same compound, the IC50 in the data set with HCT116 cells (setting [1]) came to 13.3 µM.

Compound `COc1ccc(/C=C/C(=O)c2c(OC)cc(OC)c(C3=CCN(C)CC3)c2O)c(OC)c1OC` [Compound A16, (E)-1-(2-hydroxy-4,6-dimethoxy-3-(1-methyl-1,2,3,6-tetrahydropyridine-4-yl)phenyl)-3-(2,3-4-trimethoxyphenyl)-2-propylene-1-one] gave a melting point of 145 to 147 °C. For the same compound, the 50% inhibitory concentration (IC50) with HCT116 cells (setting [1]) is 3.31 µM.

The compound `COc1cc(/C=C/C(=O)c2c(OC)cc(OC)c(C3=CCN(C)CC3)c2O)cc(OC)c1OC` [Compound A17, (E)-1-(2-hydroxy-4,6-dimethoxy-3-(1-methyl-1,2,3,6-tetrahydropyridine-4-yl)phenyl)-3-(3,4,5-trimethoxyphenyl)-2-propylene-1-one] returned a melting point of 156 to 158 °C. Further, the IC50 with HCT116 cells (setting [1]) was determined as 18.4 µM.

`COc1cc(OC)c(C2=CCNCC2)c(O)c1C(=O)/C=C/c1ccccc1` [Compound B1, 1-(2-hydroxy-4,6-dimethoxy-3-(1,2,3,6-tetrahydropyridine-4-yl)phenyl)-3-phenyl-2-propylene-1-one] gave a melting point of 118 to 120 °C. Moreover, the IC50 with HCT116 cells (setting [1]) was 8.41 µM. For the same compound, the half-maximal inhibitory concentration (IC50) in the data set on HCT116 cells (HCT-116, further evaluated after secondary screening (Table VIII), read-out: IC50 value) is roughly 0.1 µM.

Regarding `COc1cc(OC)c(C2=CCNCC2)c(O)c1C(=O)/C=C/c1ccccc1[N+](=O)[O-]` [Compound B3, (E)-1-(2-hydroxy-4,6-dimethoxy-3-(1,2,3,6-tetrahydropyridine-4-yl)phenyl)-3-(2-nitrophenyl)-2-propylene-1-one], the melting point is 128 to 130 °C. For the same compound, the half-inhibitory concentration (IC50) in the data set on HCT116 cells (setting [1]) was 5.68 µM.

`COc1cccc(/C=C/C(=O)c2c(OC)cc(OC)c(C3=CCNCC3)c2O)c1OC` [Compound B4, (E)-3-(2,3-dimethoxyphenyl)-1-(2-hydroxy-4,6-dimethoxy-3-(1,2,3,6-tetrahydropyridine-4-yl)phenyl)-2-propylene-1-one] showed a melting point of 109 to 110 °C. For the same compound, in the data set on HCT116 cells (setting [1]), the IC50 came out at 4.47 µM.

`COc1cc(OC)c(C2=CCNCC2)c(O)c1C(=O)/C=C/c1cccc(C)c1` [Compound B5, (E)-1-(2-hydroxy-4,6-dimethoxy-3-(1,2,3,6-tetrahydropyridine-4-yl)phenyl)-3-(3-methylphenyl)-2-propylene-1-one] had a melting point of 95 to 96 °C. In the data set with HCT116 cells (setting [1]), the IC50 was 6.13 µM.

Compound `COc1cccc(/C=C/C(=O)c2c(OC)cc(OC)c(C3=CCNCC3)c2O)c1` [Compound B6, (E)-1-(2-hydroxy-4,6-dimethoxy-3-(1,2,3,6-tetrahydropyridine-4-yl)phenyl)-3-(3-methoxyphenyl)-2-propylene-1-one] showed a melting point of 99 to 100 °C. For the same compound, the IC50 in the data set with HCT116 cells (setting [1]) was found to be 3.08 µM.

On to `COc1cc(OC)c(C2=CCNCC2)c(O)c1C(=O)/C=C/c1cccc(Cl)c1` [Compound B7, (E)-3-(3-chlorophenyl)-1-(2-hydroxy-4,6-dimethoxy-3-(1,2,3,6-tetrahydropyridine-4-yl)phenyl)-2-propylene-1-one], for which the melting point lay in the range of 102 to 103 °C. Besides, in the data set with HCT116 cells (setting [1]), the IC50 was determined as 9.97 µM.

`COc1cc(OC)c(C2=CCNCC2)c(O)c1C(=O)/C=C/c1cccc([N+](=O)[O-])c1` [Compound B8, (E)-1-(2-hydroxy-4,6-dimethoxy-3-(1,2,3,6-tetrahydropyridine-4-yl)phenyl)-3-(3-nitrophenyl)-2-propylene-1-one] displayed a melting point of 199 to 200 °C. The concentration for half-maximal inhibition (IC50) in the data set with HCT116 cells (setting [1]) amounted to 4.1 µM.

Compound `COc1cc(OC)c(C2=CCNCC2)c(O)c1C(=O)/C=C/c1ccc(C)cc1` [Compound B9, (E)-1-(2-hydroxy-4,6-dimethoxy-3-(1,2,3,6-tetrahydropyridine-4-yl)phenyl)-3-(4-methylphenyl)-2-propylene-1-one] showed a melting point of 98 to 100 °C. For the same compound, the IC50 in the data set with HCT116 cells (setting [1]) turned out to be 4.02 µM.

`COc1ccc(/C=C/C(=O)c2c(OC)cc(OC)c(C3=CCNCC3)c2O)cc1` [Compound B10, (E)-1-(2-hydroxy-4,6-dimethoxy-3-(1,2,3,6-tetrahydropyridine-4-yl)phenyl)-3-(4-methoxyphenyl)-2-propylene-1-one] registered a melting point of 90 to 91 °C. Moreover, in the data set with HCT116 cells (setting [1]), the IC50 came out at 11.4 µM.

For `COc1cc(OC)c(C2=CCNCC2)c(O)c1C(=O)/C=C/c1ccc(O)cc1` [Compound B11, (E)-1-(2-hydroxy-4,6-dimethoxy-3-(1,2,3,6-tetrahydropyridine-4-yl)phenyl)-3-(4-hydroxyphenyl)-2-propylene-1-one], the melting point lay in the range of 109 to 110 °C. For the same compound, the IC50 in the data set with HCT116 cells (setting [1]) is 4.03 µM.

Regarding `COc1cc(OC)c(C2=CCNCC2)c(O)c1C(=O)/C=C/c1ccc(Cl)cc1` [Compound B12, (E)-3-(4-chlorophenyl)-1-(2-hydroxy-4,6-dimethoxy-3-(1,2,3,6-tetrahydropyridine-4-yl)phenyl)-2-propylene-1-one], the melting point lay in the range of 93 to 94 °C. Also, in the data set on HCT116 cells (setting [1]), the IC50 is 4.82 µM.

`COc1cc(OC)c(C2=CCNCC2)c(O)c1C(=O)/C=C/c1ccc(Br)cc1` [Compound B13, (E)-3-(4-bromophenyl)-1-(2-hydroxy-4,6-dimethoxy-3-(1,2,3,6-tetrahydropyridine-4-yl)phenyl)-2-propylene-1-one] came in with a melting point of 120 to 121 °C. In the data set on HCT116 cells (setting [1]), the IC50 came to 18.2 µM.

`COc1cc(OC)c(C2=CCNCC2)c(O)c1C(=O)/C=C/c1ccc(N(C)C)cc1` [Compound B14, (E)-3-(4-dimethylaminophenyl)-1-(2-hydroxy-4,6-dimethoxy-3-(1,2,3,6-tetrahydropyridine-4-yl)phenyl)-2-propylene-1-one] returned a melting point of 127 to 128 °C. The IC50 in the data set on HCT116 cells (setting [1]) came out at 32 µM.

`COc1cc(OC)c(C2=CCNCC2)c(O)c1C(=O)/C=C/c1ccc(C#N)cc1` [Compound B15, (E)-3-(4-cyanophenyl)-1-(2-hydroxy-4,6-dimethoxy-3-(1,2,3,6-tetrahydropyridine-4-yl)phenyl)-2-propylene-1-one]: the melting point is 135 to 136 °C. Also, the half-inhibitory concentration (IC50) in the data set with HCT116 cells (setting [1]) turned out to be 7.3 µM.

With `COc1ccc(/C=C/C(=O)c2c(OC)cc(OC)c(C3=CCNCC3)c2O)c(OC)c1OC` [Compound B16, (E)-1-(2-hydroxy-4,6-dimethoxy-3-(1,2,3,6-tetrahydropyridine-4-yl)phenyl)-3-(2,3,4-trimethoxyphenyl)-2-propylene-1-one], the melting point lay within 98 to 100 °C. Further, the half-inhibitory concentration (IC50) in the data set with HCT116 cells (setting [1]) was found to be 5.54 µM.

With `COc1cc(/C=C/C(=O)c2c(OC)cc(OC)c(C3=CCNCC3)c2O)cc(OC)c1OC` [Compound B17, (E)-1-(2-hydroxy-4,6-dimethoxy-3-(1,2,3,6-tetrahydropyridine-4-yl)phenyl)-3-(3,4,5-trimethoxyphenyl)-2-propylene-1-one], the melting point was in the range of 124 to 125 °C. In addition, in the data set with HCT116 cells (setting [1]), the IC50 was determined as 4.2 µM.
